Values of other authors in patent US8673356B2, “Stable fixed dose topical formulation” (Glenmark Pharmaceuticals Limited, priority 2008, dated 2014).

Experiments:
[1] = converted in vivo by hydrolysis to active clindamycin

Row | Solubility in ethanol (ethanol) | Solubility in tetrahydrofuran (tetrahydrofuran) | Solubility in water | SMILES | Activity in vitro [1]
1 | very slightly soluble | soluble | practically insoluble | COc1ccc(-c2ccc3cc(C(=O)O)ccc3c2)cc1C12CC3CC(CC(C3)C1)C2 [Adapalene, 6-[3-(1-adamantyl)-4-methoxyphenyl]-2-naphthoic acid] | –
2 | – | – | water soluble | CCC[C@@H]1C[C@@H](C(=O)NC(C2O[C@H](SC)[C@H](OP(=O)(O)O)[C@@H](O)[C@H]2O)[C@H](C)Cl)N(C)C1 (stereo partly drawn) [Clindamycin phosphate, methyl 7-chloro-6,7,8-trideoxy-6-(1-methyl-trans-4-propyl-L-2-pyrrolidinecarboxamido)-1-thio-L-threo-D-galactooctopyranoside 2-(dihydrogen phosphate)] | inactive
